Measurements from PubChem BioAssay (NCI).
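Test compounds were applied to cells in 96-well plates for 48 hours at 5 doses. TGI is the concentration that stops growth completely.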

Assays:
Assay in all cases: NCI tumour cell line growth inhibition, 48 h
786-0 renal = test system: 786-0 renal
A498 renal = test system: A498 renal
A549 NSCLC = test system: A549 NSCLC
ACHN renal = test system: ACHN renal
BT-549 breast = test system: BT-549 breast
CAKI-1 renal = test system: CAKI-1 renal
CCRF-CEM leukemia = test system: CCRF-CEM leukemia
COLO 205 colon = test system: COLO 205 colon
DU-145 prostate = test system: DU-145 prostate
EKVX NSCLC = test system: EKVX NSCLC
HCC-2998 colon = test system: HCC-2998 colon
HCT-116 colon = test system: HCT-116 colon
HCT-15 colon = test system: HCT-15 colon
HL-60(TB) leukemia = test system: HL-60(TB) leukemia
HOP-62 NSCLC = test system: HOP-62 NSCLC
HOP-92 NSCLC = test system: HOP-92 NSCLC
IGROV1 ovarian = test system: IGROV1 ovarian
K-562 leukemia = test system: K-562 leukemia
KM12 colon = test system: KM12 colon
LOX IMVI melanoma = test system: LOX IMVI melanoma
M14 melanoma = test system: M14 melanoma
MCF7 breast = test system: MCF7 breast
MDA-MB-435 = test system: MDA-MB-435
MDA-N = test system: MDA-N
MOLT-4 leukemia = test system: MOLT-4 leukemia
NCI-H226 lung = test system: NCI-H226 lung
NCI-H23 lung = test system: NCI-H23 lung
NCI-H460 lung = test system: NCI-H460 lung
NCI/ADR-RES ovarian = test system: NCI/ADR-RES ovarian
OVCAR-3 ovarian = test system: OVCAR-3 ovarian
OVCAR-4 ovarian = test system: OVCAR-4 ovarian
OVCAR-5 ovarian = test system: OVCAR-5 ovarian
OVCAR-8 ovarian = test system: OVCAR-8 ovarian
PC-3 prostate = test system: PC-3 prostate
RPMI-8226 leukemia = test system: RPMI-8226 leukemia
RXF 393 renal = test system: RXF 393 renal
SF-295 CNS = test system: SF-295 CNS
SK-MEL-2 melanoma = test system: SK-MEL-2 melanoma
SK-MEL-28 melanoma = test system: SK-MEL-28 melanoma
SK-MEL-5 melanoma = test system: SK-MEL-5 melanoma
SK-OV-3 ovarian = test system: SK-OV-3 ovarian
SN12C renal = test system: SN12C renal
SNB-19 CNS = test system: SNB-19 CNS
SNB-75 CNS = test system: SNB-75 CNS
SR leukemia = test system: SR leukemia
SW-620 colon = test system: SW-620 colon
T-47D breast = test system: T-47D breast
TK-10 renal = test system: TK-10 renal
U251 CNS = test system: U251 CNS
UACC-257 melanoma = test system: UACC-257 melanoma
UACC-62 melanoma = test system: UACC-62 melanoma
UO-31 renal = test system: UO-31 renal
HT29 colon = test system: HT29 colon
MALME-3M melanoma = test system: MALME-3M melanoma
MDA-MB-231 breast = test system: MDA-MB-231 breast
NCI-H522 lung = test system: NCI-H522 lung
SF-268 CNS = test system: SF-268 CNS
SF-539 CNS = test system: SF-539 CNS

CCOC(=O)N1C(=S)C(C(=O)OC)(C(=O)OC)N=C1C
TGI (786-0 renal): > 100 µM | TGI (A498 renal): > 100 µM | TGI (A549 NSCLC): > 100 µM | TGI (ACHN renal): > 100 µM | TGI (BT-549 breast): > 100 µM | TGI (CAKI-1 renal): > 100 µM | TGI (CCRF-CEM leukemia): > 100 µM | TGI (COLO 205 colon): > 100 µM | TGI (DU-145 prostate): > 100 µM | TGI (EKVX NSCLC): > 100 µM | TGI (HCC-2998 colon): > 100 µM | TGI (HCT-116 colon): > 100 µM | TGI (HCT-15 colon): > 100 µM | TGI (HL-60(TB) leukemia): > 100 µM | TGI (HOP-62 NSCLC): > 100 µM | TGI (HOP-92 NSCLC): > 100 µM | TGI (IGROV1 ovarian): > 100 µM | TGI (K-562 leukemia): > 100 µM | TGI (KM12 colon): > 100 µM | TGI (LOX IMVI melanoma): > 100 µM | TGI (M14 melanoma): > 100 µM | TGI (MCF7 breast): > 100 µM | TGI (MDA-MB-435): > 100 µM | TGI (MDA-N): > 100 µM | TGI (MOLT-4 leukemia): > 100 µM | TGI (NCI-H226 lung): > 100 µM | TGI (NCI-H23 lung): > 100 µM | TGI (NCI-H460 lung): > 100 µM | TGI (NCI/ADR-RES ovarian): > 100 µM | TGI (OVCAR-3 ovarian): > 100 µM | TGI (OVCAR-4 ovarian): > 100 µM | TGI (OVCAR-5 ovarian): > 100 µM | TGI (OVCAR-8 ovarian): > 100 µM | TGI (PC-3 prostate): > 100 µM | TGI (RPMI-8226 leukemia): > 100 µM | TGI (RXF 393 renal): > 100 µM | TGI (SF-295 CNS): > 100 µM | TGI (SK-MEL-2 melanoma): > 100 µM | TGI (SK-MEL-28 melanoma): > 100 µM | TGI (SK-MEL-5 melanoma): > 100 µM | TGI (SK-OV-3 ovarian): > 100 µM | TGI (SN12C renal): > 100 µM | TGI (SNB-19 CNS): > 100 µM | TGI (SNB-75 CNS): > 100 µM | TGI (SR leukemia): > 100 µM | TGI (SW-620 colon): > 100 µM | TGI (T-47D breast): > 100 µM | TGI (TK-10 renal): > 100 µM | TGI (U251 CNS): > 100 µM | TGI (UACC-257 melanoma): > 100 µM | TGI (UACC-62 melanoma): > 100 µM | TGI (UO-31 renal): > 100 µM

CCOC(=O)C1=C(C)N(c2ccc(C)cc2)C2(O)C=CC(=O)C3=C(O)c4ccccc4C(=O)C312 (stereo not drawn)
TGI (786-0 renal): > 100 µM | TGI (A498 renal): 67.9 µM | TGI (A549 NSCLC): > 100 µM | TGI (ACHN renal): 50.1 µM | TGI (BT-549 breast): 49.3 µM | TGI (CAKI-1 renal): > 100 µM | TGI (CCRF-CEM leukemia): > 100 µM | TGI (COLO 205 colon): > 100 µM | TGI (DU-145 prostate): 55.7 µM | TGI (EKVX NSCLC): > 100 µM | TGI (HCC-2998 colon): 59.4 µM | TGI (HCT-116 colon): > 100 µM | TGI (HCT-15 colon): > 100 µM | TGI (HL-60(TB) leukemia): 0.039 µM | TGI (HOP-62 NSCLC): > 100 µM | TGI (HOP-92 NSCLC): 45.4 µM | TGI (HT29 colon): 65.9 µM | TGI (IGROV1 ovarian): 45.5 µM | TGI (KM12 colon): > 100 µM | TGI (LOX IMVI melanoma): 96.8 µM | TGI (M14 melanoma): > 100 µM | TGI (MALME-3M melanoma): 43.1 µM | TGI (MCF7 breast): 63 µM | TGI (MDA-MB-231 breast): > 100 µM | TGI (MDA-MB-435): > 100 µM | TGI (MDA-N): 69.5 µM | TGI (MOLT-4 leukemia): 1.26 µM | TGI (NCI-H226 lung): > 100 µM | TGI (NCI-H23 lung): > 100 µM | TGI (NCI-H460 lung): > 100 µM | TGI (NCI-H522 lung): 34.7 µM | TGI (NCI/ADR-RES ovarian): > 100 µM | TGI (OVCAR-3 ovarian): > 100 µM | TGI (OVCAR-4 ovarian): 90.9 µM | TGI (OVCAR-5 ovarian): > 100 µM | TGI (OVCAR-8 ovarian): > 100 µM | TGI (PC-3 prostate): > 100 µM | TGI (RPMI-8226 leukemia): 53.5 µM | TGI (RXF 393 renal): 62.1 µM | TGI (SF-268 CNS): > 100 µM | TGI (SF-295 CNS): > 100 µM | TGI (SF-539 CNS): 44.1 µM | TGI (SK-MEL-2 melanoma): 94.1 µM | TGI (SK-MEL-28 melanoma): 60.2 µM | TGI (SK-MEL-5 melanoma): 42.1 µM | TGI (SK-OV-3 ovarian): > 100 µM | TGI (SN12C renal): > 100 µM | TGI (SNB-19 CNS): 80.2 µM | TGI (SNB-75 CNS): 68.6 µM | TGI (SR leukemia): 2.6 µM | TGI (SW-620 colon): 61.1 µM | TGI (TK-10 renal): > 100 µM | TGI (U251 CNS): > 100 µM | TGI (UACC-257 melanoma): 57.9 µM | TGI (UACC-62 melanoma): > 100 µM | TGI (UO-31 renal): 40 µM
